Here are results for seven compounds from PubChem BioAssay (NCI).

Holding throughout (assay): DTP human tumour cell line panel, 48 h
Assay [1] deals with PC-3 prostate.
Assay [2] has as its system K-562 leukemia.
Assay [3] relates to T-47D breast.
Assay [4] relates to RXF 393 renal.
Assay [5] deals with HOP-62 NSCLC.
The subject of assay [6] is SK-MEL-28 melanoma.
Assay [7] has as its system EKVX NSCLC.
In assay [8] the test system is OVCAR-5 ovarian.
The subject of assay [9] is HCT-15 colon.
Assay [10] relates to SK-OV-3 ovarian.

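All cell lines were grown in 96-well plates and treated with compound for 48 hours. Here, GI50 denotes the concentration required for 50% inhibition of growth. TGI denotes the concentration required for complete inhibition of growth.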

By GI50 is commonly meant the concentration giving 50% growth inhibition. What is called TGI is the concentration at which net growth stops. For `COc1cc(-c2cc(C(=O)Nc3nc4ccccc4s3)nc3cc(-c4ccccc4)nn23)cc(OC)c1OC`, the GI50 in [1] is > 100 µM; in [2] it was 25.4 µM; in assay [3], 21.4 µM; in [4], 6.22 µM; in assay [5], 9.87 µM; in assay [6] it was 3.34 µM. For the same compound, the GI50 was 42.9 µM in assay [7], > 100 µM in assay [8], > 100 µM in assay [9] and 12.5 µM in assay [10]. The total growth inhibition concentration (TGI) was > 100 µM in [1]; > 100 µM in assay [2]; > 100 µM in assay [3]; 22.1 µM in assay [4]; 27.2 µM in assay [5]; > 100 µM in assay [6]. Also, the concentration for total growth inhibition (TGI) in [7] was > 100 µM; in [8], > 100 µM; in assay [9], > 100 µM; in assay [10], 27.9 µM.
Take `COc1cc2c3c(n(CCCO)c(=O)c2cc1OC)-c1cc2c(cc1C3=O)OCO2`: the GI50 was > 24.7 µM in assay [1]; 6.96 µM in [2]; 14.2 µM in assay [3]; 27.1 µM in assay [4]; 4.28 µM in assay [5]; > 31.2 µM in assay [6]. Further, the GI50 in assay [7] is 54.7 µM; in [8], > 79.2 µM; in assay [9] it was 33.4 µM; in [10], 55.3 µM. For the same compound, the concentration for total growth inhibition (TGI) is > 81.7 µM in assay [1]; > 47 µM in assay [2]; > 100 µM in assay [3]; > 94.6 µM in [4]; 78.3 µM in assay [5]; > 100 µM in assay [6]. The concentration for total growth inhibition (TGI) in assay [7], in [8], in assay [9] and in assay [10] was > 100 µM throughout.
`O=C(O)C1CCCN1Cc1c[nH]c2ccccc12` (stereo not given): the total growth inhibition concentration (TGI) in [1], in [2], in assay [3], in [4], in assay [5] and in [6] was > 100 µM each time. Further, the TGI in assay [7], in assay [8], in assay [9] and in assay [10] was > 100 µM in each case.
As to `COc1ccc2c(CN3CCC(CO)CC3)cc3cc4c(cc3c2c1)OCO4`, the GI50 in assay [1] is 0.236 µM; in [2] it was 0.15 µM; in assay [3], 0.418 µM; in [4], 0.0843 µM; in [5], 0.272 µM; in assay [6], 0.326 µM. Besides, the 50% growth inhibitory concentration (GI50) in [7] is 0.415 µM; in assay [8], 0.344 µM; in assay [9] it was 0.17 µM; in assay [10], 0.326 µM. Also, the concentration for total growth inhibition (TGI) in assay [1] is 1.02 µM; in assay [2], 3.07 µM; in assay [3] it was 9.17 µM; in assay [4], 0.847 µM; in assay [5], 2.03 µM; in assay [6], 1.15 µM. Also, the TGI came to 6.29 µM in assay [7], 10.6 µM in assay [8], 3.49 µM in assay [9] and 3.83 µM in [10].
For the compound `Cc1c(C(=O)N/N=C/c2ccc(O)cc2)nnn1-c1ccnc2c(C(F)(F)F)cccc12`, the GI50 in assay [1] is > 100 µM; in assay [2], > 100 µM; in [3] it was 92.5 µM; in assay [4] it was 5.22 µM; in assay [5], 17.5 µM; in assay [6], > 100 µM. Moreover, the GI50 was > 100 µM in assay [7], > 100 µM in assay [8], > 100 µM in [9] and 27.2 µM in assay [10]. The TGI in assay [1] was > 100 µM; in assay [2], > 100 µM; in [3] it was > 100 µM; in assay [4] it was 34.6 µM; in [5], 37 µM; in [6], > 100 µM. In addition, the concentration for total growth inhibition (TGI) in assay [7] was > 100 µM; in [8], > 100 µM; in assay [9] it was > 100 µM; in assay [10] it was 76.7 µM.
For `CCOC(=O)c1sc2ncn(Cc3cccc(Cl)c3)c(=O)c2c1C`, the GI50 in assay [1] was 13.1 µM; in assay [2] it was 12.3 µM; in assay [3], 15.6 µM; in assay [4], 16.6 µM; in assay [5] it was 12 µM; in [6], 16.8 µM. In addition, the GI50 is 17.3 µM in [7], 17.4 µM in [8], 14.1 µM in [9] and 17.4 µM in assay [10]. In addition, the total growth inhibition concentration (TGI) came out at 25.8 µM in [1]; 24.8 µM in [2]; 29 µM in [3]; 30.2 µM in [4]; 24.4 µM in [5]; 30.4 µM in [6]. Also, the TGI in assay [7] was determined as 31 µM; in [8], 31.2 µM; in [9] it was 27 µM; in assay [10], 31.2 µM.
For the compound `O=C(Oc1cccc(Nc2ncnc3ccccc23)c1)c1ccccc1Cl`, the GI50 in [1] is 17.8 µM; in assay [2], 43.1 µM; in assay [3] it was 29.2 µM; in [4], 24.8 µM; in [5], 25.6 µM; in assay [6], 48.7 µM. The GI50 in assay [7] was 7.4 µM; in assay [8], 32.3 µM; in assay [9], 18.9 µM; in assay [10] it was 66.8 µM. Further, the total growth inhibition concentration (TGI) in assay [1] is 45.9 µM; in [2], > 100 µM; in [3] it was > 100 µM; in assay [4], 70.6 µM; in [5], 83.9 µM; in assay [6], > 100 µM. Moreover, the TGI in assay [7] is 91.5 µM; in [8], > 100 µM; in assay [9] it was 46.6 µM; in [10], > 100 µM.
